Data on two molecules can be found in patent US20070010466A1 (priority 2005, published 2007).

“Also recorded” adds a separate entry of the source. A value given as a limit tells only on which side of the number the result lay.

For series [1] the following is noted: clinical trials; cited from earlier work.
The target in series [2] is T1, P-gp function on circulating natural killer (NK) cells and leukemic blasts (Homo sapiens, UniProt P08183).
T1 construct: Pharmacodynamic assessments of cellular P-gp function were conducted using an accumulation assay with DiOC2 and flow cytometry; endogenous in cells; host or cells: circulating NK cells and leukemic blasts from AML patients
As to the kind of experiment: cellular P-gp function, DiOC2 accumulation assay with flow cytometry, in AML patients. In kind it is in vivo. The protocol:
Cytarabine was also administered (100 mg/m^2/day) starting after the first dose of daunorubicin as a continuous intravenous infusion on days 1-7. Blood samples were taken at intervals for pharmacokinetic and pharmacodynamic studies. Pharmacokinetic drug determinations were conducted by HPLC. Pharmacodynamic assessments of cellular P-gp function were conducted using an accumulation assay with DiOC2 and flow cytometry. P-gp function was assessed on circulating natural killer (NK) cells and leukemic blasts. […] Means of 3 patients for each time point are shown.
Background: In flow cytometry, cells or beads pass a laser one at a time.

The conditions of series [3]: preclinical models, several oncolytics; cited from earlier work.

T1 sequence (P08183 whole entry): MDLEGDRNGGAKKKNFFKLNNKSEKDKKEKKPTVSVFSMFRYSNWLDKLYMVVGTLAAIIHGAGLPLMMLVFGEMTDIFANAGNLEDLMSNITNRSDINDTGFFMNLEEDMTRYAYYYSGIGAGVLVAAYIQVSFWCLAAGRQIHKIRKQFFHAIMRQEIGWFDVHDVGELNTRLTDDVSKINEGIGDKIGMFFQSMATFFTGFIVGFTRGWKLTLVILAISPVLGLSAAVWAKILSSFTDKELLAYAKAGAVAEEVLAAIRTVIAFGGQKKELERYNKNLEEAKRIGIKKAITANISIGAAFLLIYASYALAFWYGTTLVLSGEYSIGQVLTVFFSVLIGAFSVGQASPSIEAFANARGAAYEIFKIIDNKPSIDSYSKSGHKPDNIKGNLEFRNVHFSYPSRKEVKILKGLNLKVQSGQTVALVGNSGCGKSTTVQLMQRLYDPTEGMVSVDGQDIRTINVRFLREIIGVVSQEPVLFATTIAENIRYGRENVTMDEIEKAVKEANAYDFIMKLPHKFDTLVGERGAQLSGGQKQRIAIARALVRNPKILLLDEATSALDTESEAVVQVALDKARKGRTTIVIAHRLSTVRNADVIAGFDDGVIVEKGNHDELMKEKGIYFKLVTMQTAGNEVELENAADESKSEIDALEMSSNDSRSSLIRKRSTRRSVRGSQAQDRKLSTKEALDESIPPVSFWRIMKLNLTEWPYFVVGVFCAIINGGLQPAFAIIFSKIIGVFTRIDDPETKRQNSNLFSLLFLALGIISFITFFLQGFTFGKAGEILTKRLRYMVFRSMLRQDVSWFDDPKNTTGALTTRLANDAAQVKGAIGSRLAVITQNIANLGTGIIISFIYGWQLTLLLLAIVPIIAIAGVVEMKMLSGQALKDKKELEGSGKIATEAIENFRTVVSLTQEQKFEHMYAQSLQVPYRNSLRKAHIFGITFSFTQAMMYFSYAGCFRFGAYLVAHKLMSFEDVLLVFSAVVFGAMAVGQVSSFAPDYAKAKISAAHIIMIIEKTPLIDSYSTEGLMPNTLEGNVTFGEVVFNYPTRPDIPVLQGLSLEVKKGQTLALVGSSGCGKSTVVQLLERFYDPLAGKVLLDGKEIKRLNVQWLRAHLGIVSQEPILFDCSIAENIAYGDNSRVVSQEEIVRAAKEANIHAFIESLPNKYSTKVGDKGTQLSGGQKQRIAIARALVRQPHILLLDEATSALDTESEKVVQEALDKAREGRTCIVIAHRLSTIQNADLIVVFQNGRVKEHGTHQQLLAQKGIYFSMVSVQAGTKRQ

On to `C/C=C/C[C@@H](C)C(=O)[C@H]1C(=O)N[C@@H](C(C)C)C(=O)N(C)CC(=O)N(C)[C@@H](CC(C)C)C(=O)N[C@@H](C(C)C)C(=O)N(C)[C@@H](CC(C)C)C(=O)N[C@@H](C)C(=O)N[C@H](C)C(=O)N(C)[C@@H](CC(C)C)C(=O)N(C)[C@@H](CC(C)C)C(=O)N(C)[C@@H](C(C)C)C(=O)N1C` [valspodar], for which the “pharmacokinetic interaction with coadministered cytotoxic agents” value in series [1] is “significant pharmacokinetic interactions”.
As for `O[C@@H](COc1cccc2ncccc12)CN1CCN([C@@H]2c3ccccc3[C@@H]3[C@H](c4ccccc42)C3(F)F)CC1` [zosuquidar], the “continued inhibition of P-gp functional activity after infusion was halted” value in series [2] (after 72 hour infusion) is “at least 12 hours”. The “time to potent inhibition of P-gp function after start of infusion” value in series [2] (both NK cells and leukemic blasts, 700 mg/day continuous iv infusion) was not above 2 h. The “pharmacokinetic interaction with co-administered chemotherapy” value in series [3] is “no pharmacokinetic interaction; also recorded: minimal pharmacokinetic (PK) interactions”.
